Assay results reported in patent publication US9670214B2, “Small molecule myristate inhibitors of Bcr-abl and methods of use” (DANA-FARBER CANCER INSTITUTE, INC., priority 2007, dated 2017).

Assays:
[1] = system: Ba/F3 cells (IL-3 dependent murine pro-B cell line); assay: Proliferation assay (MTT), parental Ba/F3 cells; assay type: cell-based; conditions: Mus musculus, 48 h, drug concentrations 0.005-10 μM, read-out: BaF3
Procedure: Interleukin-3 (IL-3) dependent murine pro-B cell line, Ba/F3, and murine myeloid precursor cell line, 32D, were maintained in RPMI-1640 medium supplemented with L-Glutamine, 10% FBS and 10 U/ml recombinant murine IL-3 (Roche). Mo7e human megakarioblastic cell line was grown in RPMI-1640 medium supplemented with L-Glutamine, 20% FBS and 5 ng/ml recombinant human granulocyte macrophage cell stimulating factor (GM-CSF) (R&D Systems) or 200 ng/ml stem cell factor (SCF) (Biosource).
(§1) Cells (0.3-0.6×10^6/ml) were plated in duplicate or triplicate in 96-well plates containing increasing drug concentrations (0.005-10 μM). After incubation at 37° C. in 5% CO2 for 48 h, the effect of the compounds on cell viability was determined by MTT (Promega) colorimetric dye reduction method. Inhibition of cell proliferation was calculated as a percentage of growth of DMSO treated cells, and IC50 values were determined with Microsoft Excel XLfit3.

[2] = target: Bcr-abl T315I (Ba/F3.p210^T315I cells) (Homo sapiens, UniProt P00519, T315I, cells depend on it); assay: Proliferation assay (MTT), T315I mutant Bcr-abl expressing Ba/F3 cells; assay type: cell-based, murine; conditions: 48 h, drug concentrations 0.005-10 μM
Source text: (§2) Wild type Bcr-abl expressing 32D (32D.p210) and Ba/F3 (Ba/F3.p210) cells, and mutant Bcr-abl expressing cell lines Ba/F3.p210^G250E, Ba/F3.p210^E255V, Ba/F3.p210^T315I, Ba/F3.p210^F317L and Ba/F3.p210^M351T, as well as Ba/F3 cells transformed with Flt-3-ITD kinase. Additional assays included Ba/F3 cells expressing the fusion protein kinases TEL-PDGFRβ, TEL-JAK1, NPM-ALK, TEL-cKit, Tel-Bmx, Tel-FGR3, Tel-Lck and Ba/F3.TPR-met cells. All the above cell lines were maintained in RPMI-1640 medium with L-Glutamine, 10% FBS and 1 mg/ml geneticin (Gibco).
as §1

[3] = target: Bcr-abl (Ba/F3.p210 cells) (Homo sapiens, UniProt P00519); assay: Proliferation assay (MTT), wild type Bcr-abl expressing Ba/F3 cells; assay type: cell-based, murine; conditions: 48 h, drug concentrations 0.005-10 μM
Source text: as §2, §1

Row | Compound | IC50 [1] | IC50 [2] | IC50 [3]
1 | CCN(CC)CCCC(C)NC(=O)c1cc2c(Nc3ccc(OC(F)(F)F)cc3)ncnc2n1C (centres unmarked) | 4.12 µM | 4 µM | 1.18 µM
2 | CCN1CCCC1NC(=O)c1cc2c(Nc3ccc(OC(F)(F)F)cc3)ncnc2n1C (centres unmarked) | 5.12 µM | 8.47 µM | 2.95 µM
3 | CCN(CC)C(=O)c1ccc2c(Nc3ccc(OC(F)(F)F)cc3)ncnc2c1 | > 10 µM | 3.17 µM | 0.742 µM
4 | COC1CCN(C(=O)c2ccc3c(Nc4ccc(OC(F)(F)F)cc4)ncnc3c2)CC1 | > 10 µM | 0.895 µM | 0.639 µM
5 | CCN(CC)Cc1ccc2c(Nc3ccc(OC(F)(F)F)cc3)ncnc2c1 | > 10 µM | > 10 µM | 2.04 µM
6 | CCNNC(=O)c1ccc2c(Nc3ccc(OC(F)(F)F)cc3)ncnc2c1 | 6.51 µM | 6.3 µM | 1.88 µM
7 | Cn1c(C(=O)N2CCC(C(N)=O)CC2)cc2c(Nc3ccc(OC(F)(F)F)cc3)ncnc21 | > 10 µM | > 10 µM | 0.82 µM
8 | O=C(c1ccc2c(Nc3ccc(OC(F)(F)F)cc3)ncnc2c1)N1CCC2(CC1)C(=O)NCN2c1ccccc1 | 6.89 µM | 8.32 µM | 1.48 µM
9 | CNCCN(C)C(=O)c1ccc2c(Nc3ccc(OC(F)(F)F)cc3)ncnc2c1 | > 10 µM | > 10 µM | 5.98 µM
10 | Cn1c(CO)cc2c(Nc3ccc(OC(F)(F)F)cc3)ncnc21 | > 10 µM | > 10 µM | 0.245 µM
11 | CC(C)C(CCO)NC(=O)CCn1ccc2c(Nc3ccc(OC(F)(F)F)cc3)ncnc21 (centres unmarked) | > 10 µM | 2.07 µM | 0.86 µM
12 | OCc1ccc2c(Nc3ccc(OC(F)(F)F)cc3)ncnc2c1 | > 10 µM | > 10 µM | 0.508 µM
13 | O=C(c1ccoc1)N1CCN(C(=O)c2ccc3c(Nc4ccc(OC(F)(F)F)cc4)ncnc3c2)CC1 | > 10 µM | 3.9 µM | 2.04 µM
14 | Cn1ncc2c(Nc3ccc(OC(F)(F)F)cc3)ncnc21 | > 10 µM |  | > 10 µM
15 | COCCCNC(=O)c1ccc2c(Nc3ccc(OC(F)(F)F)cc3)ncnc2c1 | > 10 µM | > 10 µM | 4.09 µM
16 | CC(=O)Nc1cccc(-c2ncnc(Nc3ccc(OC(F)(F)F)cc3)c2C)c1 | > 10 µM | > 10 µM | 
17 | CCCC(C)S(=O)(=O)Nc1ccc(-c2cc(Nc3ccc(OC(F)(F)F)cc3)ncn2)cc1 (centres unmarked) | 3.8 µM | 1.66 µM | 
18 | FC(F)(F)Oc1ccc(Nc2cc(-c3cn[nH]c3)ncn2)cc1 | > 10 µM | ~0.46 µM | 
19 | FC(F)(F)Oc1ccc(Nc2ncnc3[nH]ccc23)cc1 | > 10 µM | > 10 µM | > 10 µM
20 | FC(F)(F)Oc1ccc(Nc2cc(-n3ccnc3Nc3ccc(OC(F)(F)F)cc3)ncn2)cc1 | > 10 µM | > 10 µM | 
21 | Cc1nc(-c2cc(Nc3ccc(OC(F)(F)F)cc3)ncn2)cs1 | > 10 µM | > 10 µM | 
22 | FC(F)(F)Oc1ccc(Nc2cc(-c3cc(Nc4ccc(OC(F)(F)F)cc4)ncn3)ncn2)cc1 | > 10 µM | 7 µM | 

Row | Compound | IC50 [1] | IC50 [2] | IC50 [3]
23 | COC(=O)c1ccc2c(Nc3ccc(OC(F)(F)F)cc3)ncnc2c1 | 6.62 µM | 1.91 µM | 0.214 µM
24 | CN1CCC(N(C)C(=O)c2ccc3c(Nc4ccc(OC(F)(F)F)cc4)ncnc3c2)CC1 | 5.99 µM | 5 µM | 0.689 µM
25 | FC(F)(F)Oc1ccc(Nc2cc(-c3cccc4sccc34)ncn2)cc1 | 3.06 µM | 3.74 µM | 
26 | CC1CN(C(=O)c2ccc3c(Nc4ccc(OC(F)(F)F)cc4)ncnc3c2)CC(C)N1 (centres unmarked) | 7.62 µM | > 10 µM | 2.14 µM
27 | FC(F)(F)Oc1ccc(Nc2cc(-n3ccnc3NCCN3CCOCC3)ncn2)cc1 | > 10 µM | > 10 µM | 
28 | Nc1cc(C2CC2)n(-c2cc(Nc3ccc(OC(F)(F)F)cc3)ncn2)n1 | > 10 µM | > 10 µM | 
29 | FC(F)(F)Oc1ccc(Nc2cc(-c3ccnc4[nH]ccc34)ncn2)cc1 | 6.85 µM | > 10 µM | 
30 | O=C(c1ccc2c(Nc3ccc(OC(F)(F)F)cc3)ncnc2c1)N1CCCC1CO (centres unmarked) | > 10 µM | > 10 µM | 1.65 µM
31 | O=C(Nc1cccc(C(F)(F)F)c1)c1ccc2c(Nc3ccc(OC(F)(F)F)cc3)ncnc2c1 | 4.5 µM | 1.56 µM | 1.28 µM
32 | NC(=O)C1CCCN(c2ncnc(Nc3ccc(OC(F)(F)F)cc3)c2Br)C1 (centres unmarked) | > 10 µM | > 10 µM | 
33 | NC(=O)CCn1ccc2c(Nc3ccc(OC(F)(F)F)cc3)ncnc21 | > 10 µM | 6.42 µM | 0.49 µM
34 | O=C(CCn1ccc2c(Nc3ccc(OC(F)(F)F)cc3)ncnc21)NCCN1CCOCC1 | > 10 µM | 3.14 µM | 1.06 µM
35 | NC(=O)C1CCCN(C(=O)c2ccc3c(Nc4ccc(OC(F)(F)F)cc4)ncnc3c2)C1 (centres unmarked) | > 10 µM | > 10 µM | 3.09 µM
36 | O=C(NCCN1CCOCC1)c1cc2c(Nc3ccc(OC(F)(F)F)cc3)ncnc2s1 [drawing 343] | > 10 µM | > 10 µM | 
37 | COc1cccc2cc(-c3ncnc(Nc4ccc(OC(F)(F)F)cc4)c3C)ccc12 | > 10 µM | > 10 µM | 
38 | Cc1ccc(S(=O)(=O)NC(=O)c2ccc3c(Nc4ccc(OC(F)(F)F)cc4)ncnc3c2)cc1 | > 10 µM | > 10 µM | > 10 µM
39 | FC(F)(F)Oc1ccc(Nc2cc(-c3c[nH]c4ccccc34)ncn2)cc1 | > 10 µM | 9.28 µM | 
40 | CCN(CC)S(=O)(=O)c1ccc(-c2cc(Nc3ccc(OC(F)(F)F)cc3)ncn2)cc1 | 8.85 µM | 3.88 µM | 
41 | O=C(c1cc2c(Nc3ccc(OC(F)(F)F)cc3)ncnc2s1)N1CCC[C@H]1CO | 3.66 µM | 1.21 µM | 
42 | Cc1c(Nc2ccc(OC(F)(F)F)cc2)ncnc1-c1ccc(CN)cc1 | > 10 µM | > 10 µM | 
43 | Cn1c(C(N)=O)cc2c(Nc3ccc(OC(F)(F)F)cc3)ncnc21 | > 10 µM | > 10 µM | 0.62 µM
44 | CCOC(=O)c1cc2c(Nc3ccc(OC(F)(F)F)cc3)ncnc2n1C | > 10 µM | > 10 µM | 1.5 µM

Row | Compound | IC50 [1] | IC50 [2] | IC50 [3]
45 | FC(F)(F)Oc1ccc(Nc2cc(-c3cnn(Cc4ccncc4)c3)ncn2)cc1 | 7.3 µM | 4 µM | 
46 | Cc1c(Nc2ccc(OC(F)(F)F)cc2)ncnc1-c1ccc(-c2ccccc2)cc1 | > 10 µM | > 10 µM | 
47 | O=C(NC1CCN(Cc2ccccc2)C1)c1cc2c(Nc3ccc(OC(F)(F)F)cc3)ncnc2s1 (centres unmarked) | 0.926 µM | 0.621 µM | 
48 | CN(CCO)C(=O)c1ccc2c(Nc3ccc(OC(F)(F)F)cc3)ncnc2c1 | > 10 µM | > 10 µM | 2.66 µM
49 | CNS(=O)(=O)c1ccc(-c2ncnc(Nc3ccc(OC(F)(F)F)cc3)c2C)cc1 | 2.5 µM | 2.13 µM | 
50 | COc1cccc2cc(-c3cc(Nc4ccc(OC(F)(F)F)cc4)ncn3)ccc12 | > 10 µM | > 10 µM | 
51 | Cc1ccc(NC(=O)c2ccc(CN3CCOCC3)c(C(F)(F)F)c2)cc1Nc1nccn1-c1cc(Nc2ccc(OC(F)(F)F)cc2)ncn1 | > 10 µM | 6.61 µM | 
52 | Cc1c(Nc2ccc(OC(F)(F)F)cc2)ncnc1-c1cnn(-c2ccccc2)c1C | 8.85 µM | 5.24 µM | 
53 | Cc1c(Nc2ccc(OC(F)(F)F)cc2)ncnc1-c1ccc(C(=O)NCCN2CCOCC2)cc1 | 3.79 µM | 0.81 µM | 
54 | Cc1c(Nc2ccc(OC(F)(F)F)cc2)ncnc1-c1ccc(C(=O)NCCO)cc1 | > 10 µM | 4.67 µM | 
55 | FC(F)(F)Oc1ccc(Nc2cc(-c3cnn(Cc4ccccc4)c3)ncn2)cc1 | > 10 µM | 1.3 µM | 
56 | O=Cc1cc(-c2cc(Nc3ccc(OC(F)(F)F)cc3)ncn2)co1 | > 10 µM | 3.83 µM | 
57 | O=C(O)c1cc2c(Nc3ccc(OC(F)(F)F)cc3)ncnc2s1 | > 10 µM | > 10 µM | 
58 | N#CCc1cccc(-c2cc(Nc3ccc(OC(F)(F)F)cc3)ncn2)c1 | 8.82 µM | 3.39 µM | 
59 | CN1CCN(C(=O)c2cc3c(Nc4ccc(OC(F)(F)F)cc4)ncnc3s2)CC1 | 2.69 µM | 1.25 µM | 
60 | CCNS(=O)(=O)c1ccc(-c2cc(Nc3ccc(OC(F)(F)F)cc3)ncn2)cc1 | > 10 µM | 1.85 µM | 
61 | FC(F)(F)Oc1ccc(Nc2ncnc(NCCN3CCOCC3)c2Br)cc1 | > 10 µM | > 10 µM | 
62 | O=S(=O)(c1ccc(-c2cc(Nc3ccc(OC(F)(F)F)cc3)ncn2)cc1)N1CCCCC1 | > 10 µM | 1.41 µM | 
63 | CS(=O)(=O)c1ccc(-c2cc(Nc3ccc(OC(F)(F)F)cc3)ncn2)cc1 | > 10 µM | 6.1 µM | 
64 | O=S(=O)(c1ccc(-c2cc(Nc3ccc(OC(F)(F)F)cc3)ncn2)cc1)N1CCOCC1 | > 10 µM | 2.63 µM | 
